Data set [1] addresses Transient receptor potential cation channel subfamily V member 1 (Homo sapiens, UniProt Q8NER1). Briefly: Blockade of human TRPV1 receptor assessed as inhibition of capsaicin-induced calcium flux.
Data set [2] is described as follows: Oral bioavailability in dog at 5 umol/kg administered in oleic acid/cremophor/PEG400 (80:10:10). The following applies: in vivo.
Data set [3] relates to Rattus norvegicus. Briefly: Decrease in carrageenan-induced thermal hyperalgesia in Sprague-Dawley rat at 100 umol/kg. The format is functional, organism-based.
Data set [4] in a line: Oral bioavailability in rat at 10 umol/kg administered in PEG400. The data set is classed as ADME, organism-based. The following applies: in vivo.
Data set [5] can be described thus: Ratio of drug level in brain to plasma in Sprague-Dawley rat. The data set is classed as ADME. Particulars: read-out: BPR.
Data set [6] can be described thus: Cmax in monkey at 10 umol/kg, po administered in PEG400. The format is ADME, organism-based, Macaca mulatta. On the set-up: dose 10 umol/kg, route oral. The following applies: rhesus monkey, in vivo.
Data set [7] is described as follows: Cmax in dog at 5 umol/kg, po administered in PEG400. The following applies: in vivo.
Data set [8] in a line: Volume of distribution beta in dog at 5 umol/kg, iv administered in PEG400. The data set is classed as ADME, organism-based, Canis lupus familiaris. The following applies: in vivo, read-out: Vbeta.
Data set [9] can be described thus: Oral bioavailability in monkey at 10 umol/kg administered in PEG400. The format is ADME, organism-based, Macaca mulatta. The following applies: rhesus monkey, in vivo.
Data set [10] is described as follows: Volume of distribution beta in rat at 10 umol/kg, iv administered in PEG400. The data set is classed as ADME, organism-based. Particulars: in vivo, read-out: Vbeta.
The nature of data set [11]: Half life in dog at 5 umol/kg, iv administered in PEG400. The format is ADME, organism-based, Canis lupus familiaris. The following applies: in vivo.
Data set [12] in a line: Aqueous solubility at pH 1. The format is physicochemical. The following applies: buffer.
Data set [13] can be described thus: Oral bioavailability in dog at 5 umol/kg administered in PEG400. The following applies: in vivo.
The nature of data set [14]: Cmax in dog at 5 umol/kg, po administered in oleic acid/cremophor/PEG400 (80:10:10). Particulars: in vivo.
The nature of data set [15]: Permeability across human Caco-2 cells. The data set is classed as ADME, cell-based.
The nature of data set [16]: Cmax in rat at 10 umol/kg, po administered in PEG400. On the set-up: dose 10 umol/kg, route oral. The format is ADME, organism-based. Particulars: in vivo.
Data set [17] can be described thus: Aqueous solubility at pH 6.8. Particulars: buffer. The data set is classed as physicochemical.
Data set [18] is described as follows: Half life in rat at 10 umol/kg, iv administered in PEG400. Particulars: in vivo. The data set is classed as ADME, organism-based.
Data set [19] is filed under the species Rattus norvegicus. Briefly: Decrease in carrageenan-induced thermal hyperalgesia in Sprague-Dawley rat. The data set is classed as functional.
The nature of data set [20]: Half life in monkey at 5 umol/kg, iv administered in PEG400. Particulars: rhesus monkey, in vivo. The format is ADME, organism-based, Macaca mulatta.
Data set [21] is described as follows: Volume of distribution beta in monkey at 5 umol/kg, iv administered in PEG400. The data set is classed as ADME, organism-based, Macaca mulatta. Particulars: rhesus monkey, in vivo, read-out: Vbeta.

This is an account of results in ChEMBL document CHEMBL1140731 (J Med Chem, 2008).

≈ marks a conversion by molar mass, not a printed value. Calls of active or inactive are those of the source. The calls are words filed in the database; no cut-off is given here. Where only a bound is given, the exact number is not on record here.

Transient receptor potential cation channel subfamily V member 1, sequence (Q8NER1 whole entry): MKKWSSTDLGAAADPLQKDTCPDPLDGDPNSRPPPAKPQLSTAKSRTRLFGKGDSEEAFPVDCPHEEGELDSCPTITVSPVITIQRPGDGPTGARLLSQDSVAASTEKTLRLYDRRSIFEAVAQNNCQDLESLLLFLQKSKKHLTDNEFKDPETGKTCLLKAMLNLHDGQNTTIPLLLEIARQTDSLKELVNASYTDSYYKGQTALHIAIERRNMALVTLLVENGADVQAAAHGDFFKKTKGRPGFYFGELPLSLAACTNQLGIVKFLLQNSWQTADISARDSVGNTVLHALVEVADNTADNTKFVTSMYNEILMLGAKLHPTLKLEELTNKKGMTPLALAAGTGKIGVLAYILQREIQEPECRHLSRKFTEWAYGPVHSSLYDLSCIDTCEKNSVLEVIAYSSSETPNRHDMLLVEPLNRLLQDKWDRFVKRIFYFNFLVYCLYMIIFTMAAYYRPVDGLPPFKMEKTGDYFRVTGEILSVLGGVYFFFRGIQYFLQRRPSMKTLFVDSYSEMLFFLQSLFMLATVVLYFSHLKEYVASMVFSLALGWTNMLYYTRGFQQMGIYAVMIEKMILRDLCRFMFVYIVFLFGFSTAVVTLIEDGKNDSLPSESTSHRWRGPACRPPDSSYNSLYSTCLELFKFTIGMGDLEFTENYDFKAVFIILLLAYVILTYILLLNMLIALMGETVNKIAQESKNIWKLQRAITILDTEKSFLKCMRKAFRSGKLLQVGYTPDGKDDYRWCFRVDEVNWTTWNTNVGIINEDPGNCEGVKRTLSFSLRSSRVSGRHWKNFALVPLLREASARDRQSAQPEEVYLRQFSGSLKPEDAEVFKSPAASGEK

As usually defined, the IC50 is the midpoint of a concentration-inhibition curve. Regarding `CC(C)(C)c1ccc2c(c1)CC(F)(F)C2NC(=O)Nc1cccc2[nH]ncc12` (stereo unspecified), the 50% inhibitory concentration (IC50) in data set [1] turned out to be 216 nM. Still for that read-out and setting: then `O=C(Nc1cccc2[nH]ncc12)NC1CCc2cccnc21` (stereo unspecified), with 1350 nM; and `O=C(Nc1cccc2[nH]ncc12)NC1CCc2ncccc21` (stereo unspecified), with 5820 nM. In the case of `O=C(Nc1cccc2[nH]ncc12)NC1CCc2cc(C3CC3)ccc21` (stereo unspecified), the IC50 in [1] was 4 nM. Same read-out and setting: then `CC(C)(C)c1cccc2c1CCC2NC(=O)Nc1cccc2[nH]ncc12` (stereo unspecified), with 14 nM; and `O=C(Nc1cccc2[nH]ncc12)NC1CCc2c1cccc2C(F)(F)F` (stereo unspecified), with 10 nM.

With `O=C(Nc1cccc2[nH]ncc12)NC1CCc2cc(F)ccc21` (stereo unspecified), the half-maximal inhibitory concentration (IC50) in data set [1] was determined as 52 nM. As to `O=C(Nc1cccc2[nH]ncc12)NC1CCc2c1cccc2N1CCC(C(F)(F)F)CC1` (stereo unspecified), the IC50 in data set [1] was 7 nM. On to `O=C(Nc1cccc2[nH]ncc12)NC1CCc2cc(C(F)(F)F)ccc21` (stereo unspecified), for which the IC50 in data set [1] is 3 nM. Turning to `O=C(Nc1cccc2[nH]ncc12)NC1CCc2c(C3CC3)cccc21` (stereo unspecified), in [1], the 50% inhibitory concentration (IC50) was found to be 5 nM. On the same count and under the same terms, then `Cc1cccc2c1CCC2NC(=O)Nc1cccc2[nH]ncc12` (stereo unspecified), with 46 nM; and `Cc1ccc2c(c1)C(NC(=O)Nc1cccc3[nH]ncc13)CC2` (stereo unspecified), with 7200 nM.

With `O=C(Nc1cccc2[nH]ncc12)NC1CCc2c1cccc2N1CCCCC1` (stereo unspecified), in data set [1], the 50% inhibitory concentration (IC50) turned out to be 10 nM. On to `O=C(Nc1cccc2[nH]ncc12)NC1CCc2c1ccc(F)c2N1CCOCC1` (stereo unspecified), for which the IC50 in data set [1] stood at 5 nM. Consider `O=C(Nc1cccc2[nH]ncc12)NC1CCc2cc(N3CCCCC3)ccc21` (stereo unspecified), for which the 50% inhibitory concentration (IC50) in data set [1] came to 14 nM. As for `CC(C)(C)c1ccc2c(c1)CC(NC(=O)Nc1cccc3[nH]ncc13)C2` (stereo unspecified), the IC50 in [1] is 10 nM. Same read-out and setting: then `CC(C)(CO)c1ccc2c(c1)CC[C@H]2NC(=O)Nc1cccc2[nH]ncc12`, with 127 nM.

For the compound `COc1ccc2c(c1)CCC2NC(=O)Nc1cccc2[nH]ncc12` (stereo unspecified), in data set [1], the IC50 worked out at 40 nM. Take `O=C(Nc1cccc2[nH]ncc12)NC1CCc2cc(Cl)ccc21` (stereo unspecified): the IC50 in data set [1] came out at 10 nM. On the same count and under the same terms, then `O=C(Nc1cccc2[nH]ncc12)NC1CCc2cc(Br)ccc21` (stereo unspecified), with 9 nM. On to `CN1CCC(NC(=O)Nc2cccc3[nH]ncc23)c2ccc(C(F)(F)F)cc21` (stereo unspecified), for which the concentration for half-maximal inhibition (IC50) in [1] is 7 nM. As to `CC(C)(C)c1ccc2c(c1)CC(F)C2NC(=O)Nc1cccc2[nH]ncc12` (stereo unspecified), the IC50 in [1] was determined as 35 nM. As to `O=C(Nc1cccc2[nH]ncc12)NC1CCOc2cc(C(F)(F)F)ccc21` (stereo unspecified), the IC50 in data set [1] is 11 nM. As to `O=C(Nc1cccc2[nH]ncc12)NC1CCc2ccccc21` (stereo unspecified), the half-inhibitory concentration (IC50) in data set [1] came to 151 nM. As for `O=C(Nc1cccc2[nH]ncc12)NC1CCc2c1cccc2N1CCOCC1` (stereo unspecified), in data set [1], the IC50 amounted to 65 nM. The same measure, in the same setting: then `CC(C)(C#N)c1cccc2c1CCC2NC(=O)Nc1cccc2[nH]ncc12` (stereo unspecified), with 19 nM. Still for that read-out and setting: for `CC(C)(C)c1ccc2c(c1)CC[C@H]2NC(=S)Nc1cccc2[nH]ncc12` the value was 97 nM; for `CC(C)(C)c1ccc2c(c1)CC[C@H]2N/C(=N/C#N)Nc1cccc2[nH]ncc12`, 34 nM. On the same count and under the same terms, then `Cc1cccc2c1C(NC(=O)Nc1cccc3[nH]ncc13)CC2` (stereo unspecified), with 595 nM; and `O=C(Nc1cccc2[nH]ncc12)NC1CCc2c1cccc2N1CCCC1` (stereo unspecified), with 21 nM.

Turning to `Cc1ccc2c(c1)CCC2NC(=O)Nc1cccc2[nH]ncc12` (stereo unspecified), the half-inhibitory concentration (IC50) in data set [1] was 11 nM. For orientation: bioavailability means dose-corrected exposure relative to a reference, in per cent. As a reminder, the Cmax is the maximum level reached in the sampled fluid or tissue. Broadly, the half-life is the time in which the quantity being followed falls by half. The Solubility is the concentration that dissolves in the medium under given conditions. As a reminder, the Papp is a coefficient for how fast a substance crosses the barrier. The ED50 is the dose at which the effect has come halfway, by size or by number of responders. On to `CC(C)(C)c1ccc2c(c1)CC[C@H]2NC(=O)Nc1cccc2[nH]ncc12` [ABT-102], for which the bioavailability in data set [2] was 60%; in data set [4], 70%; in data set [9] it was 25%; in [13], 22%. Besides, the outcome with Rattus norvegicus [3] was Active. In addition, the Kp in data set [5] was 0.32. The Cmax in data set [6] came out at 310 ng/mL; in data set [7] it was 390 ng/mL; in data set [14], 650 ng/mL; in data set [16], 250 ng/mL. Also, the values for the Vd in data set [8], in data set [10] and in [21] were 1.6 L/kg, 2.8 L/kg and 1.7 L/kg, respectively. The half-life was 1.8 h in [11], 1.7 h in data set [18] and 1.9 h in data set [20]. Further, the values for the Solubility in data set [12] and in [17] were 0.102 µg/mL (≈ 0.293 µM) and 0.0573 µg/mL (≈ 0.164 µM), respectively. Further, the apparent permeability coefficient (Papp) in data set [15] is above 18 ×10⁻⁶ cm/s. The compound further registered a median effective dose (ED50) in the data set filed under Rattus norvegicus [19] of 20 µmol/kg.
